Experimental data from patent US10696677B2 (Research Triangle Institute, priority 2016, dated 2020).
Read-outs that look alike come from different tables or passages of the source.

Tests used:
hCB1 [1] = biological target: T1, hCB1 (Homo sapiens, UniProt P21554); test: functional fluorescent CB1 activated Gαq16-coupled intracellular calcium mobilization assay in CHO-K1 cells; format: cell-based; set-up: expressed in transfected cells; host or cells: CHO-K1 (membranes); settings: average of 3-6 measurements, read-out: Apparent antagonist dissociation constant (Ke) at hCB1
T1 sequence (P21554 whole entry): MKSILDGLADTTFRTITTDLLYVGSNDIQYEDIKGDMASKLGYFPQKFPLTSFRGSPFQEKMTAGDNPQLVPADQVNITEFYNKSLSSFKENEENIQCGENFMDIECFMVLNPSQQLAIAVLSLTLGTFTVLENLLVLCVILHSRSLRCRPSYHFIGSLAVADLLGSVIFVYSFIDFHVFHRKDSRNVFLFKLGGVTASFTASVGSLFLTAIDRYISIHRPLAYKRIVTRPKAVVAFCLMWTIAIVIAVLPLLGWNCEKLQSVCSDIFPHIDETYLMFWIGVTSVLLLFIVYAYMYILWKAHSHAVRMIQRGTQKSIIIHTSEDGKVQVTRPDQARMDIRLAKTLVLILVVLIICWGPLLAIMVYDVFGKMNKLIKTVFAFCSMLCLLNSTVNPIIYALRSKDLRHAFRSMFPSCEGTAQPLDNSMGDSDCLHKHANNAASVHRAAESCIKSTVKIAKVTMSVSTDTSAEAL

MDCK = MDCK BBB Assay; format: in vitro ADME; settings: for % Permeable: MDCK BBB assay; for MDCK BBB Assay (Basolateral/Apical Peak Area Ratio) Mean: MDCK cells
hCB1 [2] = biological target: T1, hCB1; test: radioligand displacement binding at CB1 (membranes of CHO-K1 cells over-expressing receptor); settings: for CB2 Ki/CB1 Ki selectivity ratio: CB1 versus CB2
Experimental: (§1) All compounds were characterized by H^1 NMR and evaluated using a calcium mobilization assay. […] Further characterization of select compounds was performed using radioligand displacement of [3H]1 and equilibrium dissociation constant (Ki) values were determined.

hCB2 = hCB2 (Homo sapiens, UniProt P34972); test: radioligand displacement binding at CB2 ([3H]CP55940, membranes of CHO-K1 cells over-expressing receptor)
Chain of hCB2 (P34972 whole entry): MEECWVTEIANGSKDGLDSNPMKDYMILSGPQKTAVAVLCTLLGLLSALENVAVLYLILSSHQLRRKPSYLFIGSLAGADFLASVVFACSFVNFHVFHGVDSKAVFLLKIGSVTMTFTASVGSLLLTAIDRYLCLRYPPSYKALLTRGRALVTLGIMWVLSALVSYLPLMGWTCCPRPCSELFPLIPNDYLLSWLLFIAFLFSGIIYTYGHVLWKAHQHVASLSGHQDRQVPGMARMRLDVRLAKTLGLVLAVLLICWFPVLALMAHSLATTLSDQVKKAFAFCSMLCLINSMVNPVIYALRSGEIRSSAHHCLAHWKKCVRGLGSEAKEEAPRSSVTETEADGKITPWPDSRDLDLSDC
Experimental: as §1

[3] = read-out: Binding affinity (Ki) at hCB1, radioligand displacement, CHO-K1 membranes, average of 3-6 measurements
[4] = read-out: Binding affinity (Ki) at hCB2, displacement of [3H]CP55940, CHO-K1 membranes, average of 3-6 measurements

In the case of O=S(=O)(NC1CCN(c2ncnc3c2nc(-c2ccccc2Cl)n3-c2ccc(Cl)cc2)CC1)c1ccccc1F [Compound 1, N-{1-[8-(2-Chlorophenyl)-9-(4-chlorophenyl)-9H-purin-6-yl]piperidin-4-yl}-2-fluorobenzene-1-sulfonamide], the Kb (hCB1 [1]) is reported as 0.1 nM and the melting point is reported as 185 to 187 °C.

With N#Cc1ccc(N2CCN(c3ncnc4c3nc(-c3ccccc3Cl)n4-c3ccc(Cl)cc3)CC2)nc1 [Compound 3, 6-{4-[8-(2-Chlorophenyl)-9-(4-chlorophenyl)-9H-purin-6-yl]piperazin-1-yl}pyridine-3-carbonitrile] the “% Permeable” value (MDCK) was 1%, the “MDCK BBB Assay (Basolateral/Apical Peak Area Ratio) Mean” value (MDCK) was 0.005 and the Kb (hCB1 [1]) was 11.3 nM. The Ki (hCB1 [2]) was 4.8 nM, the “CB2 Ki/CB1 Ki selectivity ratio” value (hCB1 [2]) was 101 and the Ki (hCB2) was 484 nM.

For O=S(=O)(NC1CCN(c2ncnc3c2nc(-c2ccccc2Cl)n3-c2ccc(Cl)cc2)CC1)c1ccc(F)cc1 [Compound 4, N-{1-[8-(2-Chlorophenyl)-9-(4-chlorophenyl)-9H-purin-6-yl]piperidin-4-yl}-4-fluorobenzene-1-sulfonamide], the “% Permeable” value (MDCK) was 0%, the “MDCK BBB Assay (Basolateral/Apical Peak Area Ratio) Mean” value (MDCK) was 0.0006 and the Kb (hCB1 [1]) was 1.1 nM. The melting point was 196 to 197 °C.

Cn1cc(-n2c(-c3ccccc3Cl)nc3c(N4CCC(NS(=O)(=O)c5ccc(F)c(F)c5)CC4)ncnc32)cn1 [Compound 12, N-{1-[8-(2-Chlorophenyl)-9-(1-methyl-1H-pyrazol-4-yl)-9H-purin-6-yl]piperidin-4-yl}-3,4-difluorobenzene-1-sulfonamide] showed a Kb (hCB1 [1]) of 140 nM and a melting point of 162 to 164 °C.

In the case of Clc1ccc(-n2c(-c3ccccc3Cl)nc3c(N4CCC(Nc5ccccn5)CC4)ncnc32)cc1 [Compound 32, N-{1-[8-(2-chlorophenyl)-9-(4-chlorophenyl)-9H-purin-6-yl]piperidin-4-yl}pyridin-2-amine], the “% Permeable” value (MDCK) is reported as 0%, the “MDCK BBB Assay (Basolateral/Apical Peak Area Ratio) Mean” value (MDCK) is reported as 0.001 and the Kb (hCB1 [1]) is reported as 54 nM. The Ki (hCB1 [2]) was 2 nM, the “CB2 Ki/CB1 Ki selectivity ratio” value (hCB1 [2]) was 2300 and the Ki (hCB2) was 4600 nM.

For CN(Cc1ccccc1)C1CCN(c2ncnc3c2nc(-c2ccccc2Cl)n3-c2ccc(Cl)cc2)CC1 [Compound 39, N-benzyl-1-[8-(2-chlorophenyl)-9-(4-chlorophenyl)-9H-purin-6-yl]-N-methylpiperidin-4-amine], the Kb (hCB1 [1]) was 106 nM, the “CB2 Ki/CB1 Ki selectivity ratio” value (hCB1 [2]) was 98 and the Ki (hCB1 [2]; [3]) was 42 nM. The Ki (hCB2) was 4100 nM.

In the case of O=C(Nc1ccccc1)N1CCN(c2ncnc3c2nc(-c2ccccc2Cl)n3-c2ccc(C(F)(F)F)nc2)CC1 [Compound 45], the Kb (hCB1 [1]) is reported as 8 nM, the Ki (hCB1 [2]) is reported as 39 nM and the “CB2 Ki/CB1 Ki selectivity ratio” value (hCB1 [2]) is reported as 30. The Ki (hCB2) was 790 nM.

FC(F)(F)c1ccc(-n2c(-c3ccccc3Cl)nc3c(N4CCN(Cc5ccccc5Cl)CC4)ncnc32)cn1 [Compound 47, 8-(2-Chlorophenyl)-6-{4-[(2-chlorophenyl)methyl]piperazin-1-yl}-9-[6-(trifluoromethyl)pyridin-3-yl]-9H-purine] gave a Kb (hCB1 [1]) of 140 nM and a melting point of 189 to 190 °C.

Compound NC(=O)c1ccc(-n2c(-c3ccccc3Cl)nc3c(N4CCN(Cc5ccccc5Cl)CC4)ncnc32)cc1 [Compound 48, 4-[8-(2-chlorophenyl)-6-{4-[(2-chlorophenyl)methyl]piperazin-1-yl}-9H-purin-9-yl]benzamide] has a Kb (hCB1 [1]) of 440 nM and a melting point of 120 to 122 °C.

Cc1cc(-n2c(-c3ccccc3Cl)nc3c(N4CCN(Cc5ccccc5Cl)CC4)ncnc32)no1 [Compound 49, 8-(2-chlorophenyl)-6-{4-[(2-chlorophenyl)methyl]piperazin-1-yl}-9-(5-methyl-1,2-oxazol-3-yl)-9H-purine] showed a Kb (hCB1 [1]) of 320 nM and a melting point of 79 to 81 °C.

Cn1ccc(-n2c(-c3ccccc3Cl)nc3c(N4CCN(Cc5ccccc5Cl)CC4)ncnc32)n1 [Compound 51, 8-(2-Chlorophenyl)-6-{4-[(2-chlorophenyl)methyl]piperazin-1-yl}-9-(1-methyl-1H-pyrazol-3-yl)-9H-purine] showed a Kb (hCB1 [1]) of 380 nM and a melting point of 150 to 152 °C.

For CCCCC(=O)NC1(c2ccccc2)CCN(c2ncnc3c2nc(-c2ccncc2)n3-c2ccc(Cl)cc2)CC1 [Compound 55, N-{1-[9-(4-chlorophenyl)-8-pyridin-4-yl-9H-purin-6-yl]-4-phenylpiperidin-4-yl}pentanamide], the Kb (hCB1 [1]) was 869 nM, the Ki (hCB1 [2]) was 272 nM and the “CB2 Ki/CB1 Ki selectivity ratio” value (hCB1 [2]) was 5.8. It also gave a Ki (hCB2) of 1570 nM.

In the case of Clc1ccc(-n2c(-c3ccccc3Cl)nc3c(N4CCN(c5ccc(OCc6ccccc6)cc5)CC4)ncnc32)cc1 [Compound 65, 6-{4-[4-(Benzyloxy)phenyl]piperazin-1-yl}-8-(2-chlorophenyl)-9-(4-chlorophenyl)-9H-purine], the “% Permeable” value (MDCK) is reported as 8%, the “MDCK BBB Assay (Basolateral/Apical Peak Area Ratio) Mean” value (MDCK) is reported as 0.082 and the Kb (hCB1 [1]) is reported as 11.6 nM. For the same compound, the Ki (hCB1 [2]) was 4.7 nM and the “Binding affinity (Ki) at hCB2” value (hCB2; displacement of [3H]CP55940, CHO-K1 membranes, average of 3-6 measurements) was “inactive”.

For CC(C)S(=O)(=O)N1CCN(c2ncnc3c2nc(-c2ccccc2Cl)n3-c2ccc(Cl)cc2)CC1 [Compound 80, 8-(2-Chlorophenyl)-9-(4-chlorophenyl)-6-{4-[(1-methylethyl)sulfonyl]piperazin-1-yl}-9H-purine], the “% Permeable” value (MDCK) was 0%, the “MDCK BBB Assay (Basolateral/Apical Peak Area Ratio) Mean” value (MDCK) was 0.000 and the Kb (hCB1 [1]) was 1.5 nM. For the same compound, the Ki (hCB1 [2]; [3]) was 1.4 nM and the Ki (hCB2; [4]) was 978 nM.

In the case of CCCCS(=O)(=O)N1CCN(c2ncnc3c2nc(-c2ccccc2Cl)n3-c2ccc(Cl)cc2)CC1 [Compound 81, 8-(2-Chlorophenyl)-9-(4-chlorophenyl)-6-[4-(butylsulfonyl)piperazin-1-yl]-9H-purine], the “% Permeable” value (MDCK) is reported as 5%, the “MDCK BBB Assay (Basolateral/Apical Peak Area Ratio) Mean” value (MDCK) is reported as 0.053 and the Kb (hCB1 [1]) is reported as 0.4 nM. The “CB2 Ki/CB1 Ki selectivity ratio” value (hCB1 [2]) was 871, the Ki (hCB1 [2]; [3]) was 0.6 nM and the Ki (hCB2; [4]) was 505 nM.

In the case of CC(C)CS(=O)(=O)N1CCN(c2ncnc3c2nc(-c2ccccc2Cl)n3-c2ccc(Cl)cc2)CC1 [Compound 82, 8-(2-Chlorophenyl)-9-(4-chlorophenyl)-6-{4-[(2-methylpropyl)sulfonyl]piperazin-1-yl}-9H-purine], the “% Permeable” value (MDCK) is reported as 0%, the Kb (hCB1 [1]) is reported as 0.2 nM and the Ki (hCB1 [2]; [3]) is reported as 2 nM. It also gave a Ki (hCB2) of 2840 nM.

With CCCCC(=O)NC1CCN(c2ncnc3c2nc(-c2ccncc2C)n3-c2ccc(Cl)cc2)CC1 [Compound 90, N-{1-[9-(4-chlorophenyl)-8-(3-methylpyridin-4-yl)-9H-purin-6-yl]piperidin-4-yl}pentanamide] the “% Permeable” value (MDCK) was 38%, the “MDCK BBB Assay (Basolateral/Apical Peak Area Ratio) Mean” value (MDCK) was 0.379 and the Kb (hCB1 [1]) was 42.2 nM. The Ki (hCB1 [2]) was 12.1 nM, the “CB2 Ki/CB1 Ki selectivity ratio” value (hCB1 [2]) was 51 and the Ki (hCB2) was 620 nM.

For CCCCC(=O)NC1CCN(c2ncnc3c2nc(-c2ccncc2Cl)n3-c2ccc(Cl)cc2)CC1 [Compound 91, N-{1-[9-(4-chlorophenyl)-8-(3-chloropyridin-4-yl)-9H-purin-6-yl]piperidin-4-yl}pentanamide], the “% Permeable” value (MDCK) was 41%, the “MDCK BBB Assay (Basolateral/Apical Peak Area Ratio) Mean” value (MDCK) was 0.409 and the Kb (hCB1 [1]) was 27.8 nM. The Ki (hCB1 [2]) was 9.2 nM, the “CB2 Ki/CB1 Ki selectivity ratio” value (hCB1 [2]) was 126 and the Ki (hCB2) was 1150 nM.

For CCCCC(=O)NC1(c2ccccc2)CCN(c2ncnc3c2nc(-c2ccncc2Cl)n3-c2ccc(Cl)cc2)CC1 [Compound 93, N-{1-[9-(4-chlorophenyl)-8-(3-chloropyridin-4-yl)-9H-purin-6-yl]-4-phenylpiperidin-4-yl}pentanamide], the “% Permeable” value (MDCK) was 0%, the “MDCK BBB Assay (Basolateral/Apical Peak Area Ratio) Mean” value (MDCK) was 0.000 and the Kb (hCB1 [1]) was 18.5 nM. For the same compound, the Ki (hCB1 [2]) was 17.9 nM, the “CB2 Ki/CB1 Ki selectivity ratio” value (hCB1 [2]) was 46 and the Ki (hCB2) was 830 nM.
